Paper PMC12276029, “Structure−Activity Relationships of New 1‐Aryl‐1H‐Indole Derivatives as SARS‐CoV‐2 Nsp13 Inhibitors” (Chemmedchem, 2025)
Where two headings read alike, the source gives them in different places.

Key:
in vitro = conditions: African green monkey
SARS-CoV-2 nsp13 [1] = biological target: T1, SARS-CoV-2 nsp13 (Severe acute respiratory syndrome coronavirus 2, UniProt P0DTD1); set-up: method as in PMID 37562607; conditions: SARS-CoV-2 nsp13 unwinding; cited from earlier work
SARS-CoV-2 nsp13 [2] = biological target: T1, SARS-CoV-2 nsp13; set-up: method as in PMID 37562607; conditions: SARS-CoV-2 nsp13 ATPase; cited from earlier work
SARS-CoV-2 [3] = test system: SARS-CoV-2; set-up: method as in PMID 37562607; conditions: cited from earlier work; for EC50: read-out: EC50 SARS-CoV-2 replication
Vero cells = test system: Vero cells; set-up: method as in PMID 37562607; conditions: cited from earlier work
HCoV229E = test system: HCoV229E; set-up: method as in PMID 37562607; conditions: cited from earlier work
MERS-CoV = conditions: cited from earlier work
SARS-CoV-2 nsp13 [4] = biological target: T1, SARS-CoV-2 nsp13; test: SARS-CoV-2 nsp13 unwinding-associated activity assay; type: biochemical; conditions: for IC50: SARS-CoV-2 nsp13-associated unwinding activity, means ± SD from two experiments in triplicate, read-out: Activity in enzyme assay IC50 Unwinding BSA-TCEP; for selectivity for unwinding over ATPase: IC50 ATPase vs IC50 unwinding; for remaining activity at 30 µM: given in brackets beside IC50 >30 μM, read-out: Percentage of enzymatic residual activity, unwinding
SARS-CoV-2 nsp13 [5] = biological target: T1, SARS-CoV-2 nsp13; test: SARS-CoV-2 nsp13 ATPase-associated activity assay; type: biochemical; conditions: for IC50 / Activity in enzyme assay IC50 ATPase BSA-TCEP: SARS-CoV-2 nsp13-associated ATPase activity, means ± SD from two experiments in triplicate; for IC50: read-out: Activity in enzyme assay IC50 ATPase BSA-TCEP; for remaining activity at 30 µM: given in brackets beside IC50 >30 μM, read-out: Percentage of enzymatic residual activity, ATPase
SARS-CoV-2 [6] = test: SARS-CoV-2 plaque assay in infected Vero E6 cells; type: cell-based; conditions: for EC50: Severe acute respiratory syndrome coronavirus 2, plaque assay, means ± SD, n = 9, read-out: EC50, concentration reducing SARS-CoV-2 replication in Vero cells by 50%
SARS-CoV-2 nsp13 [7] = biological target: T1, SARS-CoV-2 nsp13; test: Mode-of-action assay (incubation-dependent potency, covalent/noncovalent); type: biochemical; conditions: for IC50: read-out: IC50 at time-point
SARS-CoV-2 nsp13 [8] = biological target: T1, SARS-CoV-2 nsp13; conditions: read-out: IC50 vs unwinding; cited from earlier work
SARS-CoV-2 [9] = conditions: read-out: EC50 antiviral activity; cited from earlier work

Compound: CC[C@@]1(O)C(=O)OCc2c1cc1n(c2=O)Cc2cc3ccccc3nc2-1 [Camptothecin, reference compound]
- CC50 (in vitro): 11.1 ± 0.16 µM

Compound: CCOC(=O)/C(O)=C/C(=O)/C=C/c1cn(-c2ccc(F)cc2)c2ccccc12 [Compound 3]
- IC50 (SARS-CoV-2 nsp13 [1]): 5.9 ± 0.3 µM
- IC50 (SARS-CoV-2 nsp13 [2]): 13.6 ± 3.2 µM
- SI = CC50/EC50 (SARS-CoV-2 [3]): >16
- EC50 (SARS-CoV-2 [3]): 16.1 ± 3.25 µM
- CC50 (Vero cells): > 264 µM
- activity range on HCoV229E (HCoV229E): low micromolar
- activity range on MERS-CoV (MERS-CoV): submicromolar

Compound: O=C(/C=C(\O)C(=O)O)/C=C/c1cn(-c2ccc(F)cc2)c2ccccc12 [Compound 4]
- IC50 (SARS-CoV-2 nsp13 [1]): 4.7 µM
- IC50 (SARS-CoV-2 nsp13 [2]): 8.2 µM
- EC50 (SARS-CoV-2 [3]): 1.7 µM
- CC50 (Vero cells): > 264 µM
- activity range on HCoV229E (HCoV229E): low micromolar
- activity range on MERS-CoV (MERS-CoV): submicromolar

Compound: COc1ccc(-n2cc(/C=C/C(=O)/C=C(\O)C(=O)O)c3ccccc32)cc1 [Compound 5a]
- IC50 (SARS-CoV-2 nsp13 [4]): 2.83 ± 0.54 µM
- IC50 (SARS-CoV-2 nsp13 [5]): 11.2 ± 1.37 µM

Compound: Cc1ccc(-n2cc(/C=C/C(=O)/C=C(\O)C(=O)O)c3ccccc32)cc1 [Compound 5b]
- IC50 (SARS-CoV-2 nsp13 [4]): 11.7 ± 0.94 µM
- IC50 (SARS-CoV-2 nsp13 [5]): 5.12 ± 0.38 µM

Compound: CC(C)c1ccc(-n2cc(/C=C/C(=O)/C=C(\O)C(=O)O)c3ccccc32)cc1 [Compound 5c]
- selectivity for unwinding over ATPase (SARS-CoV-2 nsp13 [4]): 70 fold
- IC50 (SARS-CoV-2 nsp13 [4]): 0.26 ± 0.01 µM
- IC50 (SARS-CoV-2 nsp13 [5]): 8.43 ± 0.04 µM
- SI = CC50/EC50 (SARS-CoV-2 [6]): >47
- EC50 (SARS-CoV-2 [6]): 2.12 ± 0.67 µM
- CC50 (in vitro): > 100 µM

Compound: O=C(/C=C(\O)C(=O)O)/C=C/c1cn(-c2ccccc2)c2ccccc12 [Compound 5d]
- IC50 (SARS-CoV-2 nsp13 [4]): 11.8 ± 0.48 µM
- IC50 (SARS-CoV-2 nsp13 [5]): 13.1 ± 0.37 µM

Compound: O=C(/C=C(\O)C(=O)O)/C=C/c1cn(-c2ccc(Cl)cc2)c2ccccc12 [Compound 5f]
- IC50 (SARS-CoV-2 nsp13 [4]): 2.64 ± 0.61 µM
- IC50 (SARS-CoV-2 nsp13 [5]): 20.95 ± 0.14 µM

Compound: N#Cc1ccc(-n2cc(/C=C/C(=O)/C=C(\O)C(=O)O)c3ccccc32)cc1 [Compound 5g]
- IC50 (SARS-CoV-2 nsp13 [4]): 10 ± 2.07 µM
- IC50 (SARS-CoV-2 nsp13 [5]): 13.6 ± 3.8 µM

Compound: O=C(/C=C(\O)C(=O)O)/C=C/c1cn(-c2ccc(C(F)(F)F)cc2)c2ccccc12 [Compound 5h]
- selectivity for unwinding over ATPase (SARS-CoV-2 nsp13 [4]): 30 fold
- IC50 (SARS-CoV-2 nsp13 [4]): 0.21 ± 0.11 µM
- IC50 (SARS-CoV-2 nsp13 [5]): 14.2 ± 1.6 µM
- SI = CC50/EC50 (SARS-CoV-2 [6]): >21
- EC50 (SARS-CoV-2 [6]): 4.56 ± 1.86 µM
- CC50 (in vitro): > 100 µM

Compound: CCOC(=O)/C(O)=C/C(=O)/C=C/c1cn(-c2ccc(OC)cc2)c2ccccc12 [Compound 6a]
- IC50 (SARS-CoV-2 nsp13 [4]): 7.59 ± 1.5 µM
- IC50 (SARS-CoV-2 nsp13 [5]): 10.4 ± 0.13 µM

Compound: CCOC(=O)/C(O)=C/C(=O)/C=C/c1cn(-c2ccc(C)cc2)c2ccccc12 [Compound 6b]
- IC50 (SARS-CoV-2 nsp13 [4]): 13.9 ± 1.5 µM
- IC50 (SARS-CoV-2 nsp13 [5]): 8.64 ± 0.77 µM

Compound: CCOC(=O)/C(O)=C/C(=O)/C=C/c1cn(-c2ccc(C(C)C)cc2)c2ccccc12 [Compound 6c]
- IC50 (SARS-CoV-2 nsp13 [4]): 4.16 ± 0.44 µM
- IC50 (SARS-CoV-2 nsp13 [5]): 13.5 ± 3.34 µM

Compound: CCOC(=O)/C(O)=C/C(=O)/C=C/c1cn(-c2ccccc2)c2ccccc12 [Compound 6d]
- IC50 (SARS-CoV-2 nsp13 [4]): 3.77 ± 0.13 µM
- IC50 (SARS-CoV-2 nsp13 [5]): 4.94 ± 0.21 µM

Compound: CCOC(=O)/C(O)=C/C(=O)/C=C/c1cn(-c2ccc(Cl)cc2)c2ccccc12 [Compound 6f]
- IC50 (SARS-CoV-2 nsp13 [4]): 2.05 ± 0.03 µM
- IC50 (SARS-CoV-2 nsp13 [5]): 3.39 ± 0.11 µM
- SI = CC50/EC50 (SARS-CoV-2 [6]): >12
- EC50 (SARS-CoV-2 [6]): 8 ± 2.19 µM
- CC50 (in vitro): > 100 µM

Compound: CCOC(=O)/C(O)=C/C(=O)/C=C/c1cn(-c2ccc(C#N)cc2)c2ccccc12 [Compound 6g]
- IC50 (SARS-CoV-2 nsp13 [4]): 6.26 ± 0.65 µM
- IC50 (SARS-CoV-2 nsp13 [5]): 2.35 ± 0.4 µM
- SI = CC50/EC50 (SARS-CoV-2 [6]): >8
- EC50 (SARS-CoV-2 [6]): 11.8 ± 7.45 µM
- CC50 (in vitro): > 100 µM

Compound: CCOC(=O)/C(O)=C/C(=O)/C=C/c1cn(-c2ccc(C(F)(F)F)cc2)c2ccccc12 [Compound 6h]
- IC50 (SARS-CoV-2 nsp13 [4]): 3.11 ± 0.55 µM
- IC50 (SARS-CoV-2 nsp13 [5]): 1.21 ± 0.16 µM
- SI = CC50/EC50 (SARS-CoV-2 [6]): >21
- EC50 (SARS-CoV-2 [6]): 4.69 ± 1.8 µM
- IC50 (SARS-CoV-2 nsp13 [7]; 1 min after the activation of the reaction): 0.3 µM
- IC50 (SARS-CoV-2 nsp13 [7]; 5 min after the activation of the reaction): 0.48 µM
- IC50 (SARS-CoV-2 nsp13 [7]; 10 min after the activation of the reaction): 0.79 µM
- IC50 (SARS-CoV-2 nsp13 [7]; 15 min after the activation of the reaction): 1.06 µM
- IC50 (SARS-CoV-2 nsp13 [7]; 20 min after the activation of the reaction): 1.31 µM
- nature of the inhibition (SARS-CoV-2 nsp13 [7]; from time-increased IC50 values): noncovalent
- effect of extended preincubation of compound and enzyme on potency (SARS-CoV-2 nsp13 [7]; preincubation +20 min and +50 min at room temperature): did not lead to increasing in inhibitory potency
- CC50 (in vitro): > 100 µM

Compound: COc1ccc(-n2cc(C(=O)/C=C(\O)C(=O)O)c3ccccc32)cc1 [Compound 7a]
- IC50 (SARS-CoV-2 nsp13 [4]): > 30 µM
- remaining activity at 30 µM (SARS-CoV-2 nsp13 [4]): 63.9%
- IC50 (SARS-CoV-2 nsp13 [5]): > 30 µM
- remaining activity at 30 µM (SARS-CoV-2 nsp13 [5]): 68.7%

Compound: Cc1ccc(-n2cc(C(=O)/C=C(\O)C(=O)O)c3ccccc32)cc1 [Compound 7b]
- IC50 (SARS-CoV-2 nsp13 [4]): 1.27 ± 0.29 µM
- Activity in enzyme assay IC50 ATPase BSA-TCEP (SARS-CoV-2 nsp13 [5]): no activity
- IC50 (SARS-CoV-2 nsp13 [5]): > 30 µM
- remaining activity at 30 µM (SARS-CoV-2 nsp13 [5]): 70.8%

Compound: CC(C)c1ccc(-n2cc(C(=O)/C=C(\O)C(=O)O)c3ccccc32)cc1 [Compound 7c]
- IC50 (SARS-CoV-2 nsp13 [4]): 0.7 ± 0.13 µM
- Activity in enzyme assay IC50 ATPase BSA-TCEP (SARS-CoV-2 nsp13 [5]): no activity
- IC50 (SARS-CoV-2 nsp13 [5]): > 30 µM
- remaining activity at 30 µM (SARS-CoV-2 nsp13 [5]): 63.9%
- SI = CC50/EC50 (SARS-CoV-2 [6]): >12
- EC50 (SARS-CoV-2 [6]): 8.1 ± 1.37 µM
- CC50 (in vitro): > 100 µM

Compound: O=C(O)/C(O)=C/C(=O)c1cn(-c2ccccc2)c2ccccc12 [Compound 7d]
- IC50 (SARS-CoV-2 nsp13 [4]): > 30 µM
- remaining activity at 30 µM (SARS-CoV-2 nsp13 [4]): 75.1%
- IC50 (SARS-CoV-2 nsp13 [5]): > 30 µM
- remaining activity at 30 µM (SARS-CoV-2 nsp13 [5]): 102%

Compound: O=C(O)/C(O)=C/C(=O)c1cn(-c2ccc(F)cc2)c2ccccc12 [Compound 7e]
- IC50 (SARS-CoV-2 nsp13 [4]): 7.03 ± 1.94 µM
- Activity in enzyme assay IC50 ATPase BSA-TCEP (SARS-CoV-2 nsp13 [5]): no activity
- IC50 (SARS-CoV-2 nsp13 [5]): > 30 µM
- remaining activity at 30 µM (SARS-CoV-2 nsp13 [5]): 99.3%

Compound: CCOC(=O)/C(O)=C/C(=O)c1cn(-c2ccc(OC)cc2)c2ccccc12 [Compound 8a]
- IC50 (SARS-CoV-2 nsp13 [4]): 18.8 ± 0.22 µM
- IC50 (SARS-CoV-2 nsp13 [5]): 19.06 ± 0.14 µM

Compound: CCOC(=O)/C(O)=C/C(=O)c1cn(-c2ccc(C)cc2)c2ccccc12 [Compound 8b]
- IC50 (SARS-CoV-2 nsp13 [4]): 17.5 ± 1.37 µM
- IC50 (SARS-CoV-2 nsp13 [5]): 18.6 ± 1.14 µM

Compound: CCOC(=O)/C(O)=C/C(=O)c1cn(-c2ccc(C(C)C)cc2)c2ccccc12 [Compound 8c]
- IC50 (SARS-CoV-2 nsp13 [4]): 8.04 ± 2.1 µM
- IC50 (SARS-CoV-2 nsp13 [5]): 15.7 ± 0.1 µM

Compound: CCOC(=O)/C(O)=C/C(=O)c1cn(-c2ccccc2)c2ccccc12 [Compound 8d]
- IC50 (SARS-CoV-2 nsp13 [4]): 13.3 ± 3.45 µM
- IC50 (SARS-CoV-2 nsp13 [5]): 11.3 ± 0.89 µM

Compound: CCOC(=O)/C(O)=C/C(=O)c1cn(-c2ccc(F)cc2)c2ccccc12 [Compound 8e]
- IC50 (SARS-CoV-2 nsp13 [4]): 12.9 ± 0.59 µM
- IC50 (SARS-CoV-2 nsp13 [5]): 16.4 ± 3.1 µM

Compound: C=CCn1c(S)nnc1CSc1ccccc1[N+](=O)[O-] [SSYA10‐001]
- IC50 (SARS-CoV-2 nsp13 [8]): 7.5 µM
- EC50 (SARS-CoV-2 [9]): 81 µM

Compound: CC(C)=CCc1c(O)cc(O)c2c(=O)cc(-c3ccc(O)cc3)oc12 [licoflavone C]
- EC50 (SARS-CoV-2 [9]): > 100 µM
